Laboratory results taken from US20070082339A1, “Methods and compositions for screening for HDAC inhibitory activity” (priority 2005, published 2007).

Test system: A549 cells
Assay: Microarray analysis of gene expression after LAQ824 treatment
Format: cell-based, human
Settings: for Fold change AMP-activated protein kinase family member 5 (ARK5) 204589_at / Fold change ANP32B acidic (leucine-rich) nuclear phosphoprotein 32 family, member B (SSP29) 201305_x_at / Fold change AVEN apoptosis, caspase activation inhibitor (Aven) 219366_at / Fold change B-cell CLL/lymphoma 3 (BCL3) 204908_s_at / Fold change BAI1-associated protein 2 (BAP2, IRSp53) 205293_x_at / Fold change BAI1-associated protein 3 (BAP3, KIAA0734) 204874_x_at / Fold change BAI1-associated protein 3 (BAP3, KIAA0734) 216356_x_at / Fold change BCL2-associated athanogene 2 (BAG-2) 209406_at / Fold change BCL2-interacting killer (apoptosis-inducing) (BP4, NBK, BIP1) 205780_at / Fold change BCL2-like 1 (BCL2L1) 206665_s_at / Fold change BH3 interacting domain death agonist (BID) 204493_at / Fold change Cyclin A2 (CCN1, CCNA) 203418_at / Fold change Cyclin-dependent kinase inhibitor 2D (p19, inhibits CDK4) (INK4D) 210240_s_at / Fold change DEC1-anti apoptosis (BHLHB2) 201169_s_at / Fold change Diphtheria toxin receptor (heparin-binding epidermal growth factor-like growth factor) (DTR) 203821_at / Fold change Early growth response 1 (TIS8, NGFI-A, KROX-24, ZIF-268) 201694_s_at / Fold change GMCL germ cell-less homolog (Drosophila) (GMCL) 218458_at / Fold change Katanin p80 (WD40-containing) subunit B 1 (KAT) 203163_at / Fold change NACHT, leucine rich repeat and PYD containing 1 (PP1044) 218380_at / Fold change Paternally expressed Gene 10 (PEG10) 212092_at / Fold change Paternally expressed Gene 10 (PEG10) 212094_at / Fold change Protein regulator of cytokinesis 1 (PRC1) 218009_s_at / Fold change SKAP55 protein 216899_s_at / Fold change Secreted frizzled-related protein 1 (FRP, SARP2) 202036_s_at / Fold change Secreted frizzled-related protein 1 (FRP, SARP2) 202037_s_at / Fold change Serine/threonine kinase 6 (AIK) 208079_s_at / Fold change Tribbles homolog 3a (TRIB3) 218145_at / Fold change Tumor necrosis factor receptor superfamily, member 6 (TNFRSF6) 215719_x_at / Fold change Tumor necrosis factor receptor superfamily, member 6 (TNFRSF6) 216252_x_at / Fold change Tumor protein p53 (Li-Fraumeni syndrome) 201746_at / Fold change Tumor protein p53 (Li-Fraumeni syndrome) 211300_s_at / Fold change member of the N-myc downregulated gene family (NDRG4) 209159_s_at: A549, 500 nM vs DMSO
Procedure: The human lung carcinoma cell line A549 is obtained from the American Type Culture Collection (Rockville, Md.) and cultured in F-12K (ATCC, Manassas, Va.), 10% fetal bovine serum, and 1% penicillin/streptomycin (Life Technologies, Inc.). LAQ824 (Novartis) is added directly to the cell medium at a final concentration of 500 nM. Microarray analysis is performed essentially as described previously (Welsh, 2001). Total RNA is prepared from A549 cells treated with LAQ 824 or DMSO for 0.5, 2, 6, 12 and 24 h. Labelled cDNA is prepared and hybridized to Affymetrix U133 oligonucleotide GeneChip® (Affymetrix, Santa Clara, Calif.). The arrays were scanned on an Affymetrix GeneArray scanner and analyzed with GENECHIP Microarray Analysis Suite 5.0 software (MAS5) (Affymetrix). The data (raw data including image files and scanner files (Cel. Files) as well as the MAS5 normalized data are stored in the DEMON Database. The MAS5 normalized data are exported from the database and analyzed using GeneSpring software version 6.1. The genes are filtered for a minimal expression of 100 in at least one condition (the condition being defined as the average the value for the 3 samples corresponding to a given time point and a treatement) The gene expression changes (fold change) are calculated for each time point (t) as follow: (Gene expression level LAQ824 treated—(Average of the 3 replicates) Time (t))/(Gene expression level DMSO treated—(Average of the 3 replicates) Time (t)).
Any fold change <0 indicated a down regulation or reduction of the mRNA production, any fold change >0 indicated an up regulation or increase of mRNA production. Genes are filtered according to the fold change and the statistical significance of the changes (1-way-ANOVA test p<0.05)).

O=C(/C=C/c1ccc(CN(CCO)CCc2c[nH]c3ccccc23)cc1)NO [LAQ824, N-Hydroxy-3-[4-[[(2-hydroxyethyl)[2-(1H-indol-3-yl)-ethyl]-amino]methyl]phenyl]-2E-2-propenamide]
Fold change AMP-activated protein kinase family member 5 (ARK5) 204589_at (12 h): −4.6 fold | Fold change ANP32B acidic (leucine-rich) nuclear phosphoprotein 32 family, member B (SSP29) 201305_x_at (12 h): −5.1 fold | Fold change AVEN apoptosis, caspase activation inhibitor (Aven) 219366_at (12 h): −2.6 fold | Fold change B-cell CLL/lymphoma 3 (BCL3) 204908_s_at (12 h): −5.5 fold | Fold change BAI1-associated protein 2 (BAP2, IRSp53) 205293_x_at (12 h): 6.8 fold | Fold change BAI1-associated protein 3 (BAP3, KIAA0734) 204874_x_at (12 h): 15.9 fold | Fold change BAI1-associated protein 3 (BAP3, KIAA0734) 216356_x_at (12 h): 27.9 fold | Fold change BCL2-associated athanogene 2 (BAG-2) 209406_at (12 h): −3.3 fold | Fold change BCL2-interacting killer (apoptosis-inducing) (BP4, NBK, BIP1) 205780_at (12 h): 12.0 fold | Fold change BCL2-like 1 (BCL2L1) 206665_s_at (12 h): −7.6 fold | Fold change BH3 interacting domain death agonist (BID) 204493_at (12 h): −3.6 fold | Fold change Cyclin A2 (CCN1, CCNA) 203418_at (12 h): −2.3 fold | Fold change Cyclin-dependent kinase inhibitor 2D (p19, inhibits CDK4) (INK4D) 210240_s_at (12 h): 4.8 fold | Fold change DEC1-anti apoptosis (BHLHB2) 201169_s_at (12 h): −4.8 fold | Fold change Diphtheria toxin receptor (heparin-binding epidermal growth factor-like growth factor) (DTR) 203821_at (12 h): 13.1 fold | Fold change Early growth response 1 (TIS8, NGFI-A, KROX-24, ZIF-268) 201694_s_at (12 h): 11.2 fold | Fold change GMCL germ cell-less homolog (Drosophila) (GMCL) 218458_at (12 h): 3.8 fold | Fold change Katanin p80 (WD40-containing) subunit B 1 (KAT) 203163_at (12 h): 4.3 fold | Fold change NACHT, leucine rich repeat and PYD containing 1 (PP1044) 218380_at (12 h): 11.3 fold | Fold change Paternally expressed Gene 10 (PEG10) 212092_at (12 h): 3.8 fold | Fold change Paternally expressed Gene 10 (PEG10) 212094_at (12 h): 3.5 fold | Fold change Protein regulator of cytokinesis 1 (PRC1) 218009_s_at (12 h): −2.5 fold | Fold change SKAP55 protein 216899_s_at (12 h): 1.8 fold | Fold change Secreted frizzled-related protein 1 (FRP, SARP2) 202036_s_at (12 h): 3.9 fold | Fold change Secreted frizzled-related protein 1 (FRP, SARP2) 202037_s_at (12 h): 3.9 fold | Fold change Serine/threonine kinase 6 (AIK) 208079_s_at (12 h): −2.4 fold | Fold change Tribbles homolog 3a (TRIB3) 218145_at (12 h): −4.0 fold | Fold change Tumor necrosis factor receptor superfamily, member 6 (TNFRSF6) 215719_x_at (12 h): −6.3 fold | Fold change Tumor necrosis factor receptor superfamily, member 6 (TNFRSF6) 216252_x_at (12 h): −4.9 fold | Fold change Tumor protein p53 (Li-Fraumeni syndrome) 201746_at (12 h): −4.4 fold | Fold change Tumor protein p53 (Li-Fraumeni syndrome) 211300_s_at (12 h): −3.7 fold | Fold change member of the N-myc downregulated gene family (NDRG4) 209159_s_at (12 h): 7.3 fold | Fold change AMP-activated protein kinase family member 5 (ARK5) 204589_at (24 h): −1.9 fold | Fold change ANP32B acidic (leucine-rich) nuclear phosphoprotein 32 family, member B (SSP29) 201305_x_at (24 h): −7.3 fold | Fold change AVEN apoptosis, caspase activation inhibitor (Aven) 219366_at (24 h): −8.2 fold | Fold change B-cell CLL/lymphoma 3 (BCL3) 204908_s_at (24 h): −1.8 fold | Fold change BAI1-associated protein 2 (BAP2, IRSp53) 205293_x_at (24 h): 3.6 fold | Fold change BAI1-associated protein 3 (BAP3, KIAA0734) 204874_x_at (24 h): 10.9 fold | Fold change BAI1-associated protein 3 (BAP3, KIAA0734) 216356_x_at (24 h): 19.2 fold | Fold change BCL2-associated athanogene 2 (BAG-2) 209406_at (24 h): −4.4 fold | Fold change BCL2-interacting killer (apoptosis-inducing) (BP4, NBK, BIP1) 205780_at (24 h): 15.5 fold | Fold change BCL2-like 1 (BCL2L1) 206665_s_at (24 h): −2.0 fold | Fold change BH3 interacting domain death agonist (BID) 204493_at (24 h): −4.6 fold | Fold change Cyclin A2 (CCN1, CCNA) 203418_at (24 h): −13.3 fold | Fold change Cyclin-dependent kinase inhibitor 2D (p19, inhibits CDK4) (INK4D) 210240_s_at (24 h): 2.0 fold | Fold change DEC1-anti apoptosis (BHLHB2) 201169_s_at (24 h): −1.9 fold | Fold change Diphtheria toxin receptor (heparin-binding epidermal growth factor-like growth factor) (DTR) 203821_at (24 h): 3.2 fold | Fold change Early growth response 1 (TIS8, NGFI-A, KROX-24, ZIF-268) 201694_s_at (24 h): 4.6 fold | Fold change GMCL germ cell-less homolog (Drosophila) (GMCL) 218458_at (24 h): 2.3 fold | Fold change Katanin p80 (WD40-containing) subunit B 1 (KAT) 203163_at (24 h): 2.9 fold | Fold change NACHT, leucine rich repeat and PYD containing 1 (PP1044) 218380_at (24 h): 22.7 fold | Fold change Paternally expressed Gene 10 (PEG10) 212092_at (24 h): 7.0 fold | Fold change Paternally expressed Gene 10 (PEG10) 212094_at (24 h): 6.5 fold | Fold change Protein regulator of cytokinesis 1 (PRC1) 218009_s_at (24 h): −5.1 fold | Fold change SKAP55 protein 216899_s_at (24 h): 4.0 fold | Fold change Secreted frizzled-related protein 1 (FRP, SARP2) 202036_s_at (24 h): 4.5 fold | Fold change Secreted frizzled-related protein 1 (FRP, SARP2) 202037_s_at (24 h): 4.4 fold | Fold change Serine/threonine kinase 6 (AIK) 208079_s_at (24 h): −8.3 fold | Fold change Tribbles homolog 3a (TRIB3) 218145_at (24 h): −10.1 fold | Fold change Tumor necrosis factor receptor superfamily, member 6 (TNFRSF6) 215719_x_at (24 h): −4.8 fold | Fold change Tumor necrosis factor receptor superfamily, member 6 (TNFRSF6) 216252_x_at (24 h): −5.6 fold | Fold change Tumor protein p53 (Li-Fraumeni syndrome) 201746_at (24 h): −7.1 fold | Fold change Tumor protein p53 (Li-Fraumeni syndrome) 211300_s_at (24 h): −7.3 fold | Fold change member of the N-myc downregulated gene family (NDRG4) 209159_s_at (24 h): 4.5 fold | NF—Y gene expression in response to LAQ824 treatment (A549 cells, DNA microarray analysis): significantly up-regulated
